Key:
[1] = biological target: T1, human phosphodiesterase 5 (PDE-5) (Homo sapiens, UniProt O76074); assay: Inhibition of human phosphodiesterase 5 (PDE-5), SPA assay; type: biochemical; settings: PDE-5 preparation from human platelets, [8-3H]cGMP substrate
T1 construct: PDE-5 preparations are obtained from human platelets by lysis; from tissue; host or cells: human platelets
In short: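 Scintillation proximity read-out with yttrium beads after 60 min room-temperature hydrolysis of 0.025 μCi [8-3H]cGMP, pH 7.5 Tris/MgCl2/EDTA buffer. Enzyme is a human platelet PDE-5 fraction, diluted to keep substrate turnover below 70%. Test concentrations 4 μM–0.0018 μM final; IC50 from inhibition curves.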

[2] = biological target: T2, recombinant guanylate cyclase reporter cell line (Rattus norvegicus, UniProt P19686+P20595); assay: Action on recombinant guanylate cyclase reporter cell line; type: cell-based
T2 construct: expressed in transfected cells
T2 sequence (P20595 1-619): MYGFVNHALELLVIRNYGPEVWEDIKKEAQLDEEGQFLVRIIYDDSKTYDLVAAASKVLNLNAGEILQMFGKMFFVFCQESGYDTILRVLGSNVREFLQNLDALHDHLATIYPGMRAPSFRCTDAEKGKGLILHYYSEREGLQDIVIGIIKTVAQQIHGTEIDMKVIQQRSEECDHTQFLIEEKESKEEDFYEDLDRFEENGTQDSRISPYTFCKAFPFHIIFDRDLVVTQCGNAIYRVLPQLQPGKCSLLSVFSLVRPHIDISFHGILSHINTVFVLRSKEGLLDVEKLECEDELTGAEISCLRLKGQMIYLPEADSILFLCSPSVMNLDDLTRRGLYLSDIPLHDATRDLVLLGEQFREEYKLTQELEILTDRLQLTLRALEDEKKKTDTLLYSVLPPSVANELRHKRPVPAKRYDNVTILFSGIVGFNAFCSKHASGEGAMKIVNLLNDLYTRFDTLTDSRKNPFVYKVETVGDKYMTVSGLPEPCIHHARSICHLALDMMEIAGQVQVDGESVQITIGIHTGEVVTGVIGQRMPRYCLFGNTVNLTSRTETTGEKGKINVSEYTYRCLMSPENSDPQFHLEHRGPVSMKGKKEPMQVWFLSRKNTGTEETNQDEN
T2 sequence (P19686 1-690): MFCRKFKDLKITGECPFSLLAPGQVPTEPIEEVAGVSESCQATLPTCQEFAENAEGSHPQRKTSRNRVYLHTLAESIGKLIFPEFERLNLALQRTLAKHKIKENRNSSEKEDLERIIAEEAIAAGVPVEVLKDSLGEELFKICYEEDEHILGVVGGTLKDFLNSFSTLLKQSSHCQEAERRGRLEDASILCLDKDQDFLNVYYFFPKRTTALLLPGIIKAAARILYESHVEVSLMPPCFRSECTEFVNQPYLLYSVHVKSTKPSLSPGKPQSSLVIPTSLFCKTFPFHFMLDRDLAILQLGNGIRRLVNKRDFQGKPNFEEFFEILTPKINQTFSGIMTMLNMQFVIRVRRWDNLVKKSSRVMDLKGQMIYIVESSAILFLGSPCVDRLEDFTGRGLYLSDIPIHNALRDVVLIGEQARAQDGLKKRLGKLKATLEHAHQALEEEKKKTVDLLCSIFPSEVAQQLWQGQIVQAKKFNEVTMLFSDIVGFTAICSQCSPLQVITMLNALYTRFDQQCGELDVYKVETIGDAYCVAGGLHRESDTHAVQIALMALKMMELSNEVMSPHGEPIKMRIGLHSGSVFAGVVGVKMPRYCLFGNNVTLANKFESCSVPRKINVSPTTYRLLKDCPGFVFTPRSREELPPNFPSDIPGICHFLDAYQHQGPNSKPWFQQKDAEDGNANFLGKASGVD
Method: B-2. Action on Recombinant Guanylate Cyclase Reporter Cell Line
The cellular action of the compounds according to the invention is determined on a recombinant guanylate cyclase reporter cell line, as described in F. Wunder et al., Anal. Biochem. 339, 104-112 (2005).

[3] = system: aorta rings; assay: Vessel-relaxing action in vitro (aorta rings, phenylephrine contraction); settings: Oryctolagus cuniculus, concentration required to reduce phenylephrine-induced contraction of rabbit aorta rings by 50%
In short: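 Rabbit aortic rings 1.5 mm wide were held under preload in carbogen-gassed Krebs-Henseleit at 37 °C and contracted with cumulative phenylephrine. Test substance was added in rising doses on successive passes, each compared with the preceding control contraction. IC50 is the concentration that halves contraction, with 0.1% DMSO in the bath.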

Structure (SMILES) | IC50 [1] [nM] | MEC (minimal effective concentration) [2] [μm] | IC50 [3] [nM]
CC1(C)C(=O)Nc2nc(-c3nn(Cc4ccccc4F)c4ncccc34)nc(N3CC(C(F)(F)F)CC3=O)c21 (stereo not drawn) [Example 25, 2-[1-(2-Fluorobenzyl)-1H-pyrazolo[3,4-b]pyridin-3-yl]-5,5-dimethyl-4-[2-oxo-4-(trifluoromethyl)pyrrolidin-1-yl]-5,7-dihydro-6H-pyrrolo[2,3-d]pyrimidin-6-one] | 320 | 0.1 | 501
CC1(C)C(=O)Nc2nc(-c3nn(Cc4ncccc4F)c4ncc(F)cc34)nc(NCC(F)(F)F)c21 [Example 16, 2-{5-Fluoro-1-[(3-fluoropyridin-2-yl)methyl]-1H-pyrazolo[3,4-b]pyridin-3-yl}-5,5-dimethyl-4-[(2,2,2-trifluoroethyl)amino]-5,7-dihydro-6H-pyrrolo[2,3-d]pyrimidin-6-one] | 13 | 0.1 | 126
CC1(C)C(=O)Nc2nc(-c3nn(Cc4ccccc4F)c4ncc(F)cc34)nc(NCCC(F)(F)F)c21 [Example 5, 2-[5-Fluoro-1-(2-fluorobenzyl)-1H-pyrazolo[3,4-b]pyridin-3-yl]-5,5-dimethyl-4-[(3,3,3-trifluoropropyl)amino]-5,7-dihydro-6H-pyrrolo[2,3-d]pyrimidin-6-one] | 130 | 0.03 | 285
CC1(C)C(=O)Nc2nc(-c3nn(Cc4ccccc4F)c4ncc(F)cc34)nc(N3CC(F)C3)c21 [Example 8, 4-(3-Fluoroazetidin-1-yl)-2-[5-fluoro-1-(2-fluorobenzyl)-1H-pyrazolo[3,4-b]pyridin-3-yl]-5,5-dimethyl-5,7-dihydro-6H-pyrrolo[2,3-d]pyrimidin-6-one] | 400 | 0.3 | 309
CCN1CCN(c2nc(-c3nn(Cc4ccccc4F)c4ncccc34)nc3c2C(C)(C)C(=O)N3)C1=O [Example 21, 4-(3-Ethyl-2-oxoimidazolidin-1-yl)-2-[1-(2-fluorobenzyl)-1H-pyrazolo[3,4-b]pyridin-3-yl]-5,5-dimethyl-5,7-dihydro-6H-pyrrolo[2,3-d]pyrimidin-6-one] | 400 | 0.03 | 100
CC1(C)C(=O)Nc2nc(-c3nn(Cc4ccccc4F)c4ncccc34)nc(Oc3cn[nH]c3)c21 [Example 27, 2-[1-(2-Fluorobenzyl)-1H-pyrazolo[3,4-b]pyridin-3-yl]-5,5-dimethyl-4-(1H-pyrazol-4-yloxy)-5,7-dihydro-6H-pyrrolo[2,3-d]pyrimidin-6-one] | 4 | 0.1 | 1470
CC1(C)C(=O)Nc2nc(-n3nc(Cc4ccccc4F)c4ccccc43)nc(O)c21 [Example 22, 2-[3-(2-Fluorobenzyl)-1H-indazol-1-yl]-4-hydroxy-5,5-dimethyl-5,7-dihydro-6H-pyrrolo[2,3-d]pyrimidin-6-one] | 580 | 0.03 | 530
CC1(C)C(=O)Nc2nc(-c3nn(Cc4ccccc4F)c4ncccc34)nc(-n3cccc(F)c3=O)c21 [Example 24, 2-[1-(2-Fluorobenzyl)-1H-pyrazolo[3,4-b]pyridin-3-yl]-4-(3-fluoro-2-oxopyridin-1(2H)-yl)-5,5-dimethyl-5,7-dihydro-6H-pyrrolo[2,3-d]pyrimidin-6-one] | 100 | 0.1 | 573
CC(C)(N)CNc1nc(-c2nn(Cc3ccccc3F)c3ncc(F)cc23)nc2c1C(C)(C)C(=O)N2 [Example 3, 4-[(2-Amino-2-methylpropyl)amino]-2-[5-fluoro-1-(2-fluorobenzyl)-1H-pyrazolo[3,4-b]pyridin-3-yl]-5,5-dimethyl-5,7-dihydro-6H-pyrrolo[2,3-d]pyrimidin-6-one] | 46 | 3.0 | 469

Further lines, results first:

IC50 [1] [nM] | MEC (minimal effective concentration) [2] [μm] | IC50 [3] [nM] | Structure (SMILES)
320 | 0.3 | 1620 | CCCOc1nc(-c2nn(Cc3ccccc3F)c3ncccc23)nc2c1C(C)(C)C(=O)N2 [Example 111, 2-[1-(2-Fluorobenzyl)-1H-pyrazolo[3,4-b]pyridin-3-yl]-5,5-dimethyl-4-propoxy-5,7-dihydro-6H-pyrrolo[2,3-d]pyrimidin-6-one]
41 | 0.3 | 10000 | CC1(C)C(=O)Nc2nc(-n3nc(Cc4ccccc4F)c4cc(F)ccc43)nc(NCC3CC3)c21 [Example 38]
50 | 0.03 | 81 | CC1(C)C(=O)Nc2nc(-c3nn(Cc4ccccc4F)c4ncccc34)nc(O)c21 [Example 109, 2-[1-(2-Fluorobenzyl)-1H-pyrazolo[3,4-b]pyridin-3-yl]-4-hydroxy-5,5-dimethyl-5,7-dihydro-6H-pyrrolo[2,3-d]pyrimidin-6-one]
100 | 1 | 700 | CC1(C)C(=O)Nc2nc(-c3nn(Cc4ccccc4F)c4ncccc34)nc(N3CC(N)C3)c21 [Example 107, 4-(3-Aminoazetidin-1-yl)-2-[1-(2-fluorobenzyl)-1H-pyrazolo[3,4-b]pyridin-3-yl]-5,5-dimethyl-5,7-dihydro-6H-pyrrolo[2,3-d]pyrimidin-6-one]
500 | 0.01 | 142 | CC1(C)C(=O)Nc2nc(-n3nc(Cc4ccccc4F)c4cc(F)ccc43)nc(O)c21 [Example 31, 2-[5-Fluoro-3-(2-fluorobenzyl)-1H-indazol-1-yl]-4-hydroxy-5,5-dimethyl-5,7-dihydro-6H-pyrrolo[2,3-d]pyrimidin-6-one]
52 | 0.03 | 38 | CC1(C)C(=O)Nc2nc(-c3nn(Cc4ccccc4F)c4ncccc34)nc(OCCO)c21 [Example 117, 2-[1-(2-Fluorobenzyl)-1H-pyrazolo[3,4-b]pyridin-3-yl]-4-(2-hydroxyethoxy)-5,5-dimethyl-5,7-dihydro-6H-pyrrolo[2,3-d]pyrimidin-6-one]
89 | 0.3 | 5490 | CC1(C)C(=O)Nc2nc(-n3nc(Cc4ccccc4F)c4ccccc43)nc(NCC3CC3)c21 [Example 36]
100 | 0.3 | 3870 | CC1(C)C(=O)Nc2nc(-n3nc(Cc4ccccc4F)c4cc(F)ccc43)nc(NCCC(F)(F)F)c21 [Example 37]
150 | 0.1 | 1670 | C[C@@H](Nc1nc(-c2nn(Cc3ccccc3F)c3ncc(F)cc23)nc2c1C(C)(C)C(=O)N2)C1CC1 [Example 88, 4-{[(1R)-1-Cyclopropylethyl]amino}-2-[5-fluoro-1-(2-fluorobenzyl)-1H-pyrazolo[3,4-b]pyridin-3-yl]-5,5-dimethyl-5,7-dihydro-6H-pyrrolo[2,3-d]pyrimidin-6-one]
120 | 0.3 | 984 | CC1(C)C(=O)Nc2nc(-c3nn(Cc4ccccc4F)c4ncccc34)nc(N3CCS(=O)(=O)CC3)c21 [Example 93, 4-(1,1-Dioxidothiomorpholin-4-yl)-2-[1-(2-fluorobenzyl)-1H-pyrazolo[3,4-b]pyridin-3-yl]-5,5-dimethyl-5,7-dihydro-6H-pyrrolo[2,3-d]pyrimidin-6-one]

Reference: US8859569B2, “Substituted annellated pyrimidines and use thereof” (Bayer Pharma Aktiengesellschaft, priority 2011, dated 2014)
